Source: patent US5859007A, “CCK or gastrin modulating benzo [b][1,4] diazepines derivatives” (Glaxo Wellcome Inc., priority 1994, dated 1999)
Where two headings read alike, the source gives them in different places. No end group written: not given here.

Experiments:
[1] = tested on: isolated guinea pig gallbladder; assay: Functional activity in isolated guinea pig gallbladder preparation; format: cell-based; conditions: for activation at 30 µM / activation at 1 µM: Cavia porcellus; for activation at 1 µM: read-out: %Contraction (1 × 10^-6 M)
rat gastric emptying = assay: Rat gastric emptying assay; format: in vivo; conditions: vehicle 66
Description: 7. RAT GASTRIC EMPTYING PROTOCOL
Methyl Cellulose (MC) Test Meal
1. Disperse MC in water at 80° C. at a final concentration of 1.5% under continuous stirring. Cool to room temperature.
2. Add Phenol Red (50 mg/100) to solution.
3. Keep solution stirring during entire experiment.
1. Food deprive animals for 18 hours.
2. Inject test drug/prop. glycol or prop. glycol alone intraperitoneally.
3. After 5 minutes, gavage 1.5 mL of Pheno Red/MC solution
1. After 20 minutes, decapitate animal
2. Clamp stomach at the pylorus and cardia ends, and rinse in 0.9% NaCl.
3. Place stomach in 100 mL of 0.1N NaOH, cut into small pieces, and homogenize for 30 seconds.
4. Let settle at room temperature for 60 minutes.
5. In centrifuge tube, add 5 mL of supernatant and 0.5 mL of trichloroacetic acid (29% w/v), and centrifuge at 2,800 rpm for 20 minutes.
6. Decant supernatant, and add 4 mL of 0.5N NaOH and read absorbance at a wavelength of 560 nm.
Calculations [formula] The standard stomach is determined from the phenol red recovered in stomachs of rats decapitated immediately after intragastric infusion of MC/phenol red.

[2] = delivered at 30 μM, read-out: Isolated guinea pig gallbladder: % contraction
[3] = intraperitoneally at 0.1 μmoles/kg
[4] = 1 × 10^-6 M test compound, expressed as % CCK-induced maximal response
[5] = 3 × 10^-5 M test compound, expressed as % CCK-induced maximal response, read-out: % Contraction (3 × 10^-5 M)

Question: With `COc1ccc(N(C(=O)CN2C(=O)C(Cc3n[nH]c4ccccc34)C(=O)N(c3ccccc3)c3ccccc32)C(C)C)cc1` (stereo not drawn) [Example 31, 2-[3-(1H-Indazol-3-ylmethyl)-2,4-dioxo-5-phenyl-2,3,4,5-tetrahydro-benzo[b][1,4]diazepin-1-yl]-N-isopropyl-N-(4-methoxy-phenyl) acetamide] as the compound, how does the activation at 30 µM [1, 2] read?
Answer: 87%

Question: And the “rat gastric emptying: % emptying” value (rat gastric emptying; [3])?
Answer: 6%

Question: Which activation at 1 µM [1, 4] does the source give for `COc1ccc(N(C(=O)CN2C(=O)C(Cc3n[nH]c4ccccc34)C(=O)N(c3ccccn3)c3ccccc32)C(C)C)cc1` (stereo not drawn) [Example 49, 2-[3-(1H-Indazol-3-ylmethyl)-2,4-dioxo-5-pyrid-2-yl-2,3,4,5-tetrahydro-benzo[b][1,4]diazepin-1-yl]-N-isopropyl-N-(4-methoxy-phenyl) acetamide] here?
Answer: 75%

Question: What about the activation at 30 µM [1, 5] of the same compound?
Answer: 91%

Question: What about the activation at 30 µM [1, 2] of the same compound?
Answer: 100%

Question: What about the “rat gastric emptying: % emptying” value (rat gastric emptying; [3]) of the same compound?
Answer: 2.5%

Question: `COc1ccc(N(C(=O)CN2C(=O)C(Cc3n[nH]c4ccccc34)C(=O)N(c3cccnc3)c3cc(F)ccc32)C(C)C)cc1` (stereo not drawn) [Example 66, 2-[7-Fluoro-3-(1H-indazol-3-ylmethyl)-2,4-dioxo-5-pyridin-3-yl-2,3,4,5-tetrahydro-benzo[b][1,4]diazepin-1-yl]-N-isopropyl-N-(4-methoxy-phenyl)-acetamide] was tested. Which activation at 1 µM [1, 4] did it give?
Answer: 97%

Question: And the activation at 30 µM [1, 5]?
Answer: 116%

Question: Which results are given for `COc1ccc(N(C(=O)CN2C(=O)C(Cc3n[nH]c4ccccc34)C(=O)N(c3ccccc3)c3cc(F)c(F)cc32)C(C)C)cc1` (stereo not drawn) [Example 67, 2-[7,8-Difluoro-3-(1H-indazol-3-ylmethyl)-2,4-dioxo-5-phenyl-2,3,4,5-tetrahydro-benzo[b][1,4]diazepin-1-yl]-N-isopropyl-N-(4-methoxy-phenyl)-acetamide]?
Answer: activation at 1 µM [1, 4]: 78%; activation at 30 µM [1, 5]: 102%

Question: Which results are given for `CC(C)N(C(=O)CN1C(=O)C(Cc2n[nH]c3ccccc23)C(=O)N(c2ccccc2)c2ccccc21)c1ccccc1` (stereo not drawn) [Example 68, 2-[3-(1H-indazol-3-ylmethyl)-2,4-dioxo-5-phenyl-2,3,4,5-tetrahydro-benzo[b][1,4]diazepin-1-yl]-N-isopropyl-N-phenyl-acetamide]?
Answer: activation at 1 µM [1, 4]: 93%; activation at 30 µM [1, 5]: 99%

Question: Which activation at 1 µM [1, 4] does the source give for `CC(C)N(C(=O)CN1C(=O)C(Cc2n[nH]c3cc(F)ccc23)C(=O)N(c2ccccc2)c2ccccc21)c1ccccc1` (stereo not drawn) [Example 69, 2-[3-(6-Fluoro-1H-indazol-3-ylmethyl)-2,4-dioxo-5-phenyl-2,3,4,5-tetrahydro-benzo[b][1,4]diazepin-1-yl]-N-isopropyl-N-phenyl-acetamide] here?
Answer: 98%

Question: What about the activation at 30 µM [1, 5] of the same compound?
Answer: 92%

Question: For `CC(C)N(C(=O)CN1C(=O)C(Cc2n[nH]c3cc(F)ccc23)C(=O)N(c2ccccc2)c2ccccc21)c1ccc(OC(F)(F)F)cc1` (stereo not drawn) [Example 70, 2-[3-(6-Fluoro-1H-indazol-3-ylmethyl)-2,4-dioxo-5-phenyl-2,3,4,5-tetrahydro-benzo[b][1,4]diazepin-1-yl]-N-isopropyl-N-(4-trifluoromethoxy-phenyl)-acetamide], which activation at 1 µM [1, 4] is on record?
Answer: 66%

Question: And the activation at 30 µM [1, 5]?
Answer: 73%

Question: What does the source list for `COc1ccc(N(C(=O)CN2C(=O)C(Cc3n[nH]c4ccccc34)C(=O)N(c3cccnc3)c3ccccc32)C(C)C)cc1` (stereo not drawn) [Example 71, 2-[3-(1H-indazol-3-ylmethyl)-2,4-dioxo-5-pyridin-3-yl-2,3,4,5-tetrahydrobenzo[b][1,4]diazepin-1-yl]-N-isopropyl-N-(4-methoxy-phenyl) acetamide]?
Answer: activation at 1 µM [1, 4]: 106%; activation at 30 µM [1, 5]: 92%

Question: Which activation at 1 µM [1, 4] does the source give for `COc1ccc(N(C(=O)CN2C(=O)C(C)(Cc3n[nH]c4ccccc34)C(=O)N(c3cccnc3)c3ccccc32)C(C)C)cc1` (stereo not drawn) [Example 74, 2-[3-(1H-Indazol-3-ylmethyl)-3-methyl-2,4-dioxo-5-pyridin-3-yl-2,3,4,5-tetrahydro-benzo[b][1,4]diazepin-1-yl]-N-isopropyl-N-(4-methoxy-phenyl)-acetamide] here?
Answer: 86%

Question: And the activation at 30 µM [1, 5]?
Answer: 88%

Question: What does the source list for `COc1ccc(N(C(=O)CN2C(=O)C(C)(Cc3n[nH]c4ccccc34)C(=O)N(c3cccnc3)c3ccccc32)C(C)C)cc1` (stereo not drawn) [Example 76, 2-[3-(1H-indazol-3-ylmethyl)-3-methyl-2,4-dioxo-5-pyridin-3-yl-2,3,4,5-tetrahydro-benzo[b][1,4]diazepin-1-yl]-N-isopropyl-N-(4-methoxy-phenyl)-acetamide]?
Answer: %Contraction (1 × 10^-6 M) [1, 4]: 93%; % Contraction (3 × 10^-5 M) ([1]; 3 × 10^-5 M test compound, expressed as % CCK-induced maximal response): 95%

Question: Which results are given for `CC(C)N(C(=O)CN1C(=O)C(Cc2n[nH]c3ccccc23)C(=O)N(c2ccccc2)c2ccccc21)c1ccc2c(c1)OCO2` (stereo not drawn) [Example 77, 2-[3-(1H-Indazol-3-ylmethyl)-2,4-dioxo-5-phenyl-2,3,4,5-tetrahydrobenzo[b][1,4]diazepin-1-yl]-N-isopropyl-N-(3,4-methylenedioxy-phenyl) acetamide]?
Answer: activation at 1 µM [1, 4]: 78%; activation at 30 µM [1, 5]: 120%

Question: For `COc1ccccc1N(C(=O)CN1C(=O)C(Cc2n[nH]c3ccccc23)C(=O)N(c2ccccc2)c2ccccc21)C(C)C` (stereo not drawn) [Example 78, 2-[3-(1H-Indazol-3-ylmethyl)-2,4-dioxo-5-phenyl-2,3,4,5-tetrahydrobenzo[b][1,4]diazepin-1-yl]-N-isopropyl-N-(2-methoxy-phenyl) acetamide], which activation at 1 µM [1, 4] is on record?
Answer: 43%

Question: How did the activation at 1 µM [1, 4] turn out when `COc1cccc(N(C(=O)CN2C(=O)C(Cc3n[nH]c4ccccc34)C(=O)N(c3ccccc3)c3ccccc32)C(C)C)c1` (stereo not drawn) [Example 79, 2-[3-(1H-Indazol-3-ylmethyl)-2,4-dioxo-5-phenyl-2,3,4,5-tetrahydrobenzo[b][1,4]diazepin-1-yl]-N-isopropyl-N-(3-methoxy-phenyl) acetamide] was run?
Answer: 92%

Question: What about the activation at 30 µM [1, 5] of the same compound?
Answer: 93%

Question: Which results are given for `COc1ccc(N(C(=O)CN2C(=O)C(Cc3n[nH]c4ccccc34)C(=O)N(c3ccncc3)c3ccccc32)C(C)C)cc1` (stereo not drawn) [Example 80, 2-[3-(1H-Indazol-3-ylmethyl)-2,4-dioxo-5-pyridin-4-yl-2,3,4,5-tetrahydro-benzo[b][1,4]diazepin-1-yl]-N-isopropyl-N-(4-methoxy-phenyl)-acetamide]?
Answer: activation at 1 µM [1, 4]: 81%; activation at 30 µM [1, 5]: 73%

Question: For `COc1ccc(N(C(=O)CN2C(=O)C(Cc3n[nH]c4ccccc34)C(=O)N(c3cccc(F)c3)c3ccccc32)C(C)C)cc1` (stereo not drawn) [Example 81, 2-[5-(3-Fluoro-phenyl)-3-(1H-indazol-3-ylmethyl)-2,4-dioxo-2,3,4,5-tetrahydro-benzo[b][1,4]diazepin-1-yl]-N-isopropyl-N-(4-methoxy-phenyl)-acetamide], which activation at 1 µM [1, 4] is on record?
Answer: 97%

Question: What about the activation at 30 µM [1, 5] of the same compound?
Answer: 96%

Question: Which activation at 1 µM [1, 4] does the source give for `COc1ccc(N(C(=O)CN2C(=O)C(COCc3ccccc3)C(=O)N(c3ccccc3)c3ccccc32)C(C)C)cc1` (stereo not drawn) [Example 82, 2-[3-(Benzyloxymethyl)-2,4-dioxo-5-phenyl-2,3,4,5-tetrahydro-benzo[b][1,4]diazepin-1-yl]-N-isopropyl-N-(4-methoxy-phenyl)-acetamide] here?
Answer: 69%

Question: What about the activation at 30 µM [1, 5] of the same compound?
Answer: 89%

Question: How did the activation at 1 µM [1, 4] turn out when `CC(C)N(C(=O)CN1C(=O)C(Cc2n[nH]c3ccccc23)C(=O)N(c2cccnc2)c2ccccc21)c1ccccc1` (stereo not drawn) [Example 83, 2-[3-(1H-Indazol-3-ylmethyl)-2,4-dioxo-5-pyridin-3-yl-2,3,4,5-tetrahydrobenzo[b][1,4]diazepin-1-yl]-N-isopropyl-N-phenyl acetamide] was run?
Answer: 85%

Question: And the activation at 30 µM [1, 5]?
Answer: 97%

Question: Which results are given for `COc1ccc(N(C(=O)CN2C(=O)C(C)(CC(=O)Nc3ccccc3)C(=O)N(c3cccnc3)c3ccccc32)C(C)C)cc1` (stereo not drawn) [Example 84, N-Isopropyl-N-[4-methoxyphenyl]-2-[3-methyl-2,4-dioxo-3-phenylcarbamoylmethyl-5-pyridin-3-yl-2,3,4,5-tetrahydrobenzo[b][1,4]diazepin-1-yl) acetamide]?
Answer: activation at 1 µM [1, 4]: 96%; activation at 30 µM [1, 5]: 96%

Question: For “CCK8: the Cterminal octapeptide of CCK (DYMGWMDF; ends and bridges not checked; UniProt P06307 96-103, looked up) [reference compound]”, which “Isolated guinea pig gallbladder: % contraction” value ([1]; delivered at 1 μM) is on record?
Answer: 100%

Question: What about the “rat gastric emptying: % emptying” value (rat gastric emptying; CCK-8 intraperitoneally at 30 nmoles/kg) of the same compound?
Answer: 0%
